Test results reported in patent publication US6753337B2, “Alkynyl containing hydroxamic acid compounds as matrix metalloproteinase/tace inhibitors” (Wyeth Holdings Corporation, priority 1999, dated 2004).

Assays:
[1] = biological target: TNF-α converting enzyme (TACE) (Homo sapiens, UniProt P78536); assay: Test procedure for measuring TACE inhibition (fluorescent peptidyl substrate); assay type: biochemical
Experimental: Using 96-well black microtiter plates, each well receives a solution composed of 10 μL TACE (final concentration 1 μg/mL), 70 μL Tris buffer, pH 7.4 containing 10% glycerol (final concentration 10 mM), and 10 μL of test compound solution in DMSO (final concentration 1 μM, DMSO concentration <1%) and incubated for 10 minutes at room temperature. The reaction is initiated by addition of a fluorescent peptidyl substrate (final concentration 100 μM to each well and then shaking on a shaker for 5 sec.
The reaction is read (excitation 340 nm, emission 420 nm) for 10 min. and the increase in fluorescence over time is plotted as a linear line. The slope of the line is calculated and represents the reaction rate.
(§1) The mean (x±sem) of the control rate is calculated and compared for statistical significance (p<0.05) with drug-treated rates using Dunnett's multiple comparison test.

MMP-13 = MMP-13 (Homo sapiens, UniProt P45452); assay: MMP-13 inhibition (thiopeptide or fluorescent peptide substrate); assay type: biochemical; conditions: read-out: MMP13 IC50
Experimental: The enzyme activity is measured by the rate of the color increase. The thiopeptide substrate is made up fresh as a 20 mM stock in 100% DMSO and the DTNB is dissolved in 100% DMSO as a 100 mM stock and stored in the dark at room temperature. Both the substrate and DTNB are diluted together to 1 mM with substrate buffer (50 mM HEPES pH 7.5, 5 mM CaCl2) before use. The stock of enzyme is diluted with buffer (50 mM HEPES, pH 7.5, 5 mM CaCl2, 0.02% Brij) to the desired final concentration.
Alternatively, a fluorescent peptide substrate is used. In this test procedure, the peptide substrate contains a fluorescent group and a quenching group. Upon cleavage of the substrate by an MMP, the fluorescence that is generated is quantitated on the fluorescence plate reader. The assay is run in HCBC assay buffer (50 mM HEPES, pH 7.0, 5 mM Ca^+2, 0.02% Brij, 0.5% Cysteine), with human recombinant MMP-1, MMP-9, or MMP-13. The substrate is dissolved in methanol and stored frozen in 1 mM aliquots. For the assay, substrate and enzymes are diluted in HCBC buffer to the desired concentrations. Compounds are added to the 96 well plate containing enzyme and the reaction is started by the addition of substrate.
as §1, with “For either the thiopeptide or fluorescent peptide test procedures, the slope of the line is calculated and represents the reaction rate. […] The” for “The”

Chain of TNF-α converting enzyme (TACE) (P78536 215-824): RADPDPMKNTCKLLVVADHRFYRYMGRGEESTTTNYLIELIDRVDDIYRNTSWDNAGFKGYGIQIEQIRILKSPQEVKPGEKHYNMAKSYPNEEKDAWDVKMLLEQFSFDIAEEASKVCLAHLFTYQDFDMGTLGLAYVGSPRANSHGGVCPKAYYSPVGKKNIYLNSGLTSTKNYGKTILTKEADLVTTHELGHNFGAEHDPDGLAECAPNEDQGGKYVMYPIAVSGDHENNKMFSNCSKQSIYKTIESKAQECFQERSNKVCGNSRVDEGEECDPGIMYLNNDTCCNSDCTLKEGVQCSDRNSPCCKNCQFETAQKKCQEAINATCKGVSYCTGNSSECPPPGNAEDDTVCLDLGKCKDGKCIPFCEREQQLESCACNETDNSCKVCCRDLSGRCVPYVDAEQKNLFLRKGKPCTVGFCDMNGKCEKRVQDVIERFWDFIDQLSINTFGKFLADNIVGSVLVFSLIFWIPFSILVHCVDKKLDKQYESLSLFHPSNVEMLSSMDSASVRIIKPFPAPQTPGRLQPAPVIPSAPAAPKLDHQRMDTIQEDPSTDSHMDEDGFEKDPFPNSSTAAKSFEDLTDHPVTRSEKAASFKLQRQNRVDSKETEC

SMILES | IC50 [1] | IC50 (MMP-13) | inhibition at 1 µM [1]
CC#CCOc1ccc(S(=O)(=O)C2(C(=O)NO)CCN(Cc3ccc(Br)cc3)CC2)cc1 [Example 1, 1-(4-Bromo-benzyl)-4-(4-but-2-ynyxoy-benzenesulfonyl)-piperdine-4-carboxylic acid hydroxyamide] | 65 nM | 155 nM | –
CC#CCOc1ccc(S(=O)(=O)C2(C(=O)NO)CCN(Cc3ccc(OC)cc3)CC2)cc1 [Example 2, 4-(4-But-2-ynyloxy-benzenesulfonyl)-1-(4-methoxy-benzyl)-piperdine-4-carboxylic acid hydroxyamide] | 82 nM | 39.6 nM | –
CC#CCOc1ccc(S(=O)(=O)C2(C(=O)NO)CCN(Cc3ccc(Cl)cc3)CC2)cc1 [Example 3, 4-(4-But-2-ynyloxy-benzenesulfonyl)-1-(4-chloro-benzyl)-piperdine-4-carboxylic acid hydroxyamide] | 55 nM | 90 nM | –
CC#CCOc1ccc(S(=O)(=O)C2(C(=O)NO)CCN(Cc3ccccc3)CC2)cc1 [Example 4, 1-Benzyl-4-(4-but-2-ynyloxy-benzenesulfonyl)-piperdine-4-carboxylic acid hydroxyamide] | 90 nM | 47.3 nM | –
CCC#CCOc1ccc(S(=O)(=O)C2(C(=O)NO)CCN(Cc3ccc(Br)cc3)CC2)cc1 [Example 5, 1-(4-Bromo-benzyl)-4-(4-pent-2-ynyloxy-benzenesulfonyl)-piperdine-4-carboxylic acid hydroxyamide] | 188 nM | 180 nM | –
CC#CCOc1ccc(S(=O)(=O)C2(C(=O)NO)CCN(Cc3ccc(F)cc3)CC2)cc1 [Example 7, 4-(4-But-2-ynyloxy-benzenesulfonyl)-1-(4-fluoro-benzyl)-piperidine-4-carboxylic acid hydroxyamide] | 123 nM | 59.4 nM | –
CC#CCOc1ccc(S(=O)(=O)C2(C(=O)NO)CCN(Cc3ccc(C#N)cc3)CC2)cc1 [Example 8, 4-(4-But-2-ynyloxy-benzenesulfonyl)-1-(4-cyano-benzyl)-piperidine-4-carboxylic acid hydroxyamide] | 195 nM | 72 nM | –
CC#CCOc1ccc(S(=O)(=O)C2(C(=O)NO)CCN(Cc3ccc(C)cc3)CC2)cc1 [Example 9, 4-(4-But-2-ynyloxy-benzenesulfonyl)-1-(4-methyl-benzyl)-piperidine-4-carboxylic acid hydroxamide] | 166 nM | 35.2 nM | –
C#CCOc1ccc(S(=O)(=O)C2(C(=O)NO)CCN(Cc3ccc(Br)cc3)CC2)cc1 [Example 11, 1-(4-Bromo-benzyl)-4-(4-prop-2-ynyloxy-benzenesulfonyl)-piperdine-4-carboxylic acid hydroxyamide] | 98 nM | 3.1 nM | –
O=C(NO)C1(S(=O)(=O)c2ccc(OCC#CCN3CCCCC3)cc2)CCN(Cc2ccc(Br)cc2)CC1 [Example 12, 1-(4-bromo-benzyl)-4-[4-(4-piperidin-1-yl-but-2-ynyloxy)-benzenesulfonyl]-piperidine-4-carboxylic acid hydroxyamide] | – | 1500 nM | 41.8%
CC#CCOc1ccc(S(=O)(=O)C2(C(=O)NO)CCOCC2)cc1 [Example 20, 4-{[4-(2-butynyloxy)phenyl]sulfonyl}-N-hydroxytetrahydro-2H-pyran-4-carboxamide] | 30.1 nM | 121 nM | –
CC#CCOc1cccc(S(=O)(=O)C2(C(=O)NO)CCN(Cc3ccccc3)CC2)c1 [Example 21, 1-benzyl-4-{[3-(2-butynyloxy)phenyl]sulfonyl}-N-hydroxy-4-piperdine carboxamide] | 509 nM | 858 nM | –
CC#CCOc1ccc(S(=O)(=O)C2(C(=O)NO)CCN(C(C)C)CC2)cc1 [Example 22, 4-{[4-(2-butynyloxy)phenyl]sulfonyl}-N-hydroxy-1-isopropyl-4-piperidine carboxamide] | – | 1080 nM | 48.4%
CC#CCOc1ccc(S(=O)(=O)C2(C(=O)NO)CCN(Cc3cccnc3)CC2)cc1 [Example 23, 4-{[4-(2-butynyloxy)phenyl]sulfonyl}-N-hydroxy-1-(3-pyridinylmethyl)-4-piperidine carboxamide] | 86.2 nM | 64.4 nM | –
CC#CCOc1ccc(S(=O)(=O)C2(C(=O)NO)CCCN(CC)C2)cc1 (stereo not shown) [Example 24, 3-{[4-(2-Butynyloxy)phenyl]sulfonyl}-1-ethyl-N-hydroxy-3-piperidinecarboxamide] | 180 nM | 463 nM | –
CC#CCOc1ccc(S(=O)(=O)C2(C(=O)NO)CCCN(Cc3ccc(Cl)cc3)C2)cc1 (stereo not shown) [Example 25, 3-{[4-(2-butynyloxy)phenyl]sulfonyl}-1-(4-chlorobenzyl)-N-hydroxy-3-piperidinecarboxamide] | 695 nM | 1180 nM | –
CC#CCOc1ccc(S(=O)(=O)C2(C(=O)NO)CCN(Cc3ccc(OCCN4CCCCC4)cc3)CC2)cc1 [Example 26, 4-{[4-(2-Butynyloxy)phenyl]sulfonyl}-1-[4-(2-piperidin-1-yl-ethoxy)-benzyl]-piperidine-4-carboxylic acid hydroxyamide] | 136 nM | 22.1 nM | –
CC#CCOc1ccc(S(=O)(=O)C2(C(=O)NO)CCN(C(CC)CC)CC2)cc1 [Example 27, 4-{[4-(2-Butynyloxy)phenyl]sulfonyl}-1-(3-pentanyl)-piperidine-4-carboxylic acid hydroxyamide] | 168 nM | 426 nM | –
C#CCOc1ccc(S(=O)(=O)C2(C(=O)NO)CCN(Cc3ccc(OC)cc3)CC2)cc1 [Example 28, 1-(4-Methoxy-benzyl)-4-(4-prop-2-ynyloxy-benzenesulfonyl)-piperidine-4-carboxylic acid hydroxyamide] | 150 nM | 5.3 nM | –
C#CCOc1ccc(S(=O)(=O)C2(C(=O)NO)CCN(Cc3ccc(Cl)cc3)CC2)cc1 [Example 29, 1-(4-Chlorobenzyl)-4-(4-prop-2-ynyloxy-benzenesulfonyl)-piperidine-4-carboxylic acid hydroxyamide] | 127 nM | 4.7 nM | –

The remaining lines, values ahead:

IC50 [1] | IC50 (MMP-13) | inhibition at 1 µM [1] | SMILES
102 nM | 2910 nM | – | CC#CCOc1ccc(SCC2(C(=O)NO)CCN(C(=O)OC(C)(C)C)CC2)cc1 [Example 30, tert-butyl-4-({[4-(2-butynyloxy)phenyl]sulfanyl}methyl)-4-[(hydroxyamino)-carbonyl]-1-piperidinecarboxylate]
314 nM | > 10000 nM | – | CC#CCOc1ccc(SCC2(C(=O)NO)CCNCC2)cc1 [Example 31, 4-({[4-(But-2-ynyloxy)phenyl]thio}methyl)-N-hydroxypiperidine-4-carboxamide]
100 nM | 2750 nM | – | CC#CCOc1ccc([S+]([O-])CC2(C(=O)NO)CCN(C(=O)OC(C)(C)C)CC2)cc1 (stereo not shown) [Example 32, tert-Butyl-4-({[4-(2-butynyloxy)phenyl]sulfinyl}methyl)-4-[(hydroxyamino)-carbonyl]-1-piperidinecarboxylate]
327 nM | ~10000 nM | – | CC#CCOc1ccc([S+]([O-])CC2(C(=O)NO)CCNCC2)cc1 (stereo not shown) [Example 33, 4-[[[4-(2-Butynyloxy)phenyl]sulfinyl]methyl]-N-hydroxy-4-piperidinecarboxamide]
33 nM | 102 nM | – | CC#CCOc1ccc(S(=O)(=O)CC2(C(=O)NO)CCN(C(=O)OC(C)(C)C)CC2)cc1 [Example 34, tert-Butyl-4-({[4-(but-2-ynyloxy)phenyl]sulfonyl}methyl)-4-[(hydroxyamino)-carbonyl]piperidine-1-carboxylate]
4.8 nM | 380 nM | – | CC#CCOc1ccc(S(=O)(=O)CC2(C(=O)NO)CCN(C(C)=O)CC2)cc1 [Example 36, 1-Acetyl-4-[[[4-(2-butynyloxy)phenyl]sulfonyl]methyl]-N-hydroxy-4-piperidinecarboxamide]
19 nM | 279 nM | – | CC#CCOc1ccc(S(=O)(=O)CC2(C(=O)NO)CCN(C(=O)NC(C)(C)C)CC2)cc1 [Example 38]
63 nM | 36 nM | – | CC#CCOc1ccc(S(=O)(=O)CC2(C(=O)NO)CCN(C(=O)OCc3ccccc3)CC2)cc1 [Example 40, Benzyl 4-({[4-(2-butynyloxy)phenyl]sulfonyl}methyl)-4-[(hydroxyamino)-carbonyl]-1-piperidinecarboxylate]
37 nM | 254 nM | – | CC#CCOc1ccc(S(=O)(=O)CC2(C(=O)NO)CCN(Cc3ccccc3)CC2)cc1 [Example 41]
